In patent US20250171461A1, “STIMULATOR OF INTERFERON GENES (STING) MODULATORS, AND COMPOSITIONS AND METHODS THEREOF” (Geode Therapeutics Inc., priority 2022, published 2025):

These compounds were tested against T1, human HAQ STING isoform (hSTING HAQ) (Homo sapiens, UniProt Q86WV6, G230A/H232R/R293Q/R71H) (assay: IFN-β mRNA level in THP1 cells (qPCR, STING agonist cellular activity)). Details: compound at 3.6 μM, 2 hrs, IFNβ expression normalized against GAPDH by the 2^-ΔΔCT method, DMSO = 1.0.
T1 construct: THP1 cells express the naturally occurring human HAQ STING isoform (hSTING HAQ); host or cells: THP1
T1 sequence (Q86WV6 whole entry R71H/G230A/H232R/R293Q, canonical isoform): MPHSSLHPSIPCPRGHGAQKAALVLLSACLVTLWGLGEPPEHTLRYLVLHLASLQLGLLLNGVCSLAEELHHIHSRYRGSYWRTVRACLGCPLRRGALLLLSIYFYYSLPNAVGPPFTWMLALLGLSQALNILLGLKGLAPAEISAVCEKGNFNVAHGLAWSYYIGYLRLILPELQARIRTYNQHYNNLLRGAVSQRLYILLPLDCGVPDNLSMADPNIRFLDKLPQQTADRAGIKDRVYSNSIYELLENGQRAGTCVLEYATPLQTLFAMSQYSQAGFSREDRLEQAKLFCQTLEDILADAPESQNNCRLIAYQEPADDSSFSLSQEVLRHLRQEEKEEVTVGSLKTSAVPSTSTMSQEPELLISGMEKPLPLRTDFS
Assay type: cell-based
Procedure, shortened: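 THP1 cells were seeded at 9×10^5 per well, incubated overnight, then treated with compound at 3.6 μM final (0.1% DMSO control) for 2 hrs at 37 °C. IFN-β mRNA was measured by SYBR Green qPCR, normalised to GAPDH by the 2^−ΔΔCT method, in triplicate.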

SMILES | Relative mRNA INFβ/GAPDH THP 1
COc1ccc(CN(Cc2cn3c4c(c(F)c(F)cc4c2=O)OCC3)[C@H]2CCCN(c3ccc(N)nc3)C2)c(OC)c1 [Compound 73, (S)-6-(((1-(6-aminopyridin-3-yl)piperidin-3-yl)(2,4-dimethoxybenzyl)amino)methyl)-9,10-difluoro-2,3-dihydro-7H-[1,4]oxazino[2,3,4-ij]quinolin-7-one] | 7.9
Nc1ccc(N2CCC[C@H](N(Cc3ccc(C(F)(F)F)cc3F)Cc3cn4c5c(c(F)c(F)cc5c3=O)OCC4)C2)cn1 [Compound 74, (S)-6-(((1-(6-aminopyridin-3-yl)piperidin-3-yl)(2-fluoro-4-(trifluoromethyl)benzyl)amino)methyl)-9,10-difluoro-2,3-dihydro-7H-[1,4]oxazino[2,3,4-ij]quinolin-7-one] | 1.4
Nc1ccc(N2CCC[C@H](N(Cc3ccccn3)Cc3cn4c5c(c(F)c(F)cc5c3=O)OCC4)C2)cn1 [Compound 75, (S)-6-(((1-(6-aminopyridin-3-yl)piperidin-3-yl)(pyridin-2-ylmethyl)amino)methyl)-9,10-difluoro-2,3-dihydro-7H-[1,4]oxazino[2,3,4-ij]quinolin-7-one] | 1.1
Nc1ccc(N2CCC[C@H](N(Cc3ccc(Cl)nc3)Cc3cn4c5c(c(F)c(F)cc5c3=O)OCC4)C2)cn1 [Compound 76, (S)-6-(((1-(6-aminopyridin-3-yl)piperidin-3-yl)((6-chloropyridin-3-yl)methyl)amino)methyl)-9,10-difluoro-2,3-dihydro-7H-[1,4]oxazino[2,3,4-ij]quinolin-7-one] | 0.8
Nc1ccc(N2CCC[C@H](N(Cc3ccccc3F)Cc3cn4c5c(c(F)c(F)cc5c3=O)OCC4)C2)cn1 [Compound 77, (S)-6-(((1-(6-aminopyridin-3-yl)piperidin-3-yl)(2-fluorobenzyl)amino)methyl)-9,10-difluoro-2,3-dihydro-7H-[1,4]oxazino[2,3,4-ij]quinolin-7-one] | 1.3
Cc1cc(CN(Cc2cn3c4c(c(F)c(F)cc4c2=O)OCC3)[C@H]2CCCN(c3ccc(N)nc3)C2)cc(C)c1F [Compound 78, (S)-6-(((1-(6-aminopyridin-3-yl)piperidin-3-yl)(4-fluoro-3,5-dimethylbenzyl)amino)methyl)-9,10-difluoro-2,3-dihydro-7H-[1,4]oxazino[2,3,4-ij]quinolin-7-one] | 1.2
Nc1ccc(N2CCC[C@H](N(Cc3ccncc3Cl)Cc3cn4c5c(c(F)c(F)cc5c3=O)OCC4)C2)cn1 [Compound 79, (S)-6-(((1-(6-aminopyridin-3-yl)piperidin-3-yl)((3-chloropyridin-4-yl)methyl)amino)methyl)-9,10-difluoro-2,3-dihydro-7H-[1,4]oxazino[2,3,4-ij]quinolin-7-one] | 335.5
COc1cc(CN(Cc2cn3c4c(c(F)c(F)cc4c2=O)OCC3)[C@H]2CCCN(c3ccc(C)nc3)C2)ccn1 [Compound 80, (S)-9,10-difluoro-6-((((2-methoxypyridin-4-yl)methyl)(1-(6-methylpyridin-3-yl)piperidin-3-yl)amino)methyl)-2,3-dihydro-7H-[1,4]oxazino[2,3,4-ij]quinolin-7-one] | 6820.3
Cc1cc(CN(Cc2cn3c4c(c(F)c(F)cc4c2=O)OCC3)[C@H]2CCCN(c3cccnc3)C2)ccn1 [Compound 81, (S)-9,10-difluoro-6-((((2-methylpyridin-4-yl)methyl)(1-(pyridin-3-yl)piperidin-3-yl)amino)methyl)-2,3-dihydro-7H-[1,4]oxazino[2,3,4-ij]quinolin-7-one] | 5719.5
Cc1cc(CN(Cc2cn3c4c(c(F)c(F)cc4c2=O)OCC3)[C@H]2CCCN(c3cnccn3)C2)ccn1 [Compound 83, (S)-9,10-difluoro-6-((((2-methylpyridin-4-yl)methyl)(1-(pyrazin-2-yl)piperidin-3-yl)amino)methyl)-2,3-dihydro-7H-[1,4]oxazino[2,3,4-ij]quinolin-7-one] | 1.2
COc1cc(CN(Cc2cn3c4c(c(F)c(F)cc4c2=O)OCC3)[C@H]2CCCN(c3cnccn3)C2)ccn1 [Compound 84, (S)-9,10-difluoro-6-((((2-methoxypyridin-4-yl)methyl)(1-(pyrazin-2-yl)piperidin-3-yl)amino)methyl)-2,3-dihydro-7H-[1,4]oxazino[2,3,4-ij]quinolin-7-one] | 0.9
O=c1c(CN(Cc2ccncn2)[C@H]2CCCN(c3cnccn3)C2)cn2c3c(c(F)c(F)cc13)OCC2 [Compound 85, (S)-9,10-difluoro-6-(((1-(pyrazin-2-yl)piperidin-3-yl)(pyrimidin-4-ylmethyl)amino)methyl)-2,3-dihydro-7H-[1,4]oxazino[2,3,4-ij]quinolin-7-one] | 0.9
COc1cnccc1CN(Cc1cn2c3c(c(F)c(F)cc3c1=O)OCC2)[C@H]1CCCN(c2cnccn2)C1 [Compound 86, (S)-9,10-difluoro-6-((((3-methoxypyridin-4-yl)methyl)(1-(pyrazin-2-yl)piperidin-3-yl)amino)methyl)-2,3-dihydro-7H-[1,4]oxazino[2,3,4-ij]quinolin-7-one] | 1.1
O=c1c(CN(Cc2ccncc2F)[C@H]2CCCN(c3cnccn3)C2)cn2c3c(c(F)c(F)cc13)OCC2 [Compound 87, (S)-9,10-difluoro-6-((((3-fluoropyridin-4-yl)methyl)(1-(pyrazin-2-yl)piperidin-3-yl)amino)methyl)-2,3-dihydro-7H-[1,4]oxazino[2,3,4-ij]quinolin-7-one] | 1.2
COC(=O)c1cc(CN(Cc2cn3c4c(c(F)c(F)cc4c2=O)OCC3)[C@H]2CCCN(c3cnccn3)C2)ccn1 [Compound 88, methyl (S)-4-((((9,10-difluoro-7-oxo-2,3-dihydro-7H-[1,4]oxazino[2,3,4-ij]quinolin-6-yl)methyl)(1-(pyrazin-2-yl)piperidin-3-yl)amino)methyl)picolinate] | 0.8
N#Cc1cc(CN(Cc2cn3c4c(c(F)c(F)cc4c2=O)OCC3)[C@H]2CCCN(c3cnccn3)C2)ccn1 [Compound 89, (S)-4-((((9,10-difluoro-7-oxo-2,3-dihydro-7H-[1,4]oxazino[2,3,4-ij]quinolin-6-yl)methyl)(1-(pyrazin-2-yl)piperidin-3-yl)amino)methyl)picolinonitrile] | 1.3
CCOc1cc(CN(Cc2cn3c4c(c(F)c(F)cc4c2=O)OCC3)[C@H]2CCCN(c3cnccn3)C2)ccn1 [Compound 90, (S)-6-((((2-ethoxypyridin-4-yl)methyl)(1-(pyrazin-2-yl)piperidin-3-yl)amino)methyl)-9,10-difluoro-2,3-dihydro-7H-[1,4]oxazino[2,3,4-ij]quinolin-7-one] | 1.7
CNC(=O)c1cc(CN(Cc2cn3c4c(c(F)c(F)cc4c2=O)OCC3)[C@H]2CCCN(c3cnccn3)C2)ccn1 [Compound 91, (S)-4-((((9,10-difluoro-7-oxo-2,3-dihydro-7H-[1,4]oxazino[2,3,4-ij]quinolin-6-yl)methyl)(1-(pyrazin-2-yl)piperidin-3-yl)amino)methyl)-N-methylpicolinamide] | 1.0
NC(=O)c1cc(CN(Cc2cn3c4c(c(F)c(F)cc4c2=O)OCC3)[C@H]2CCCN(c3cnccn3)C2)ccn1 [Compound 92, (S)-4-((((9,10-difluoro-7-oxo-2,3-dihydro-7H-[1,4]oxazino[2,3,4-ij]quinolin-6-yl)methyl)(1-(pyrazin-2-yl)piperidin-3-yl)amino)methyl)picolinamide] | 1.1
CCN1CCN(c2c(F)cc3c(=O)c(CN(Cc4ccnc(OC)c4)[C@H]4CCCN(c5ccc(N)nc5)C4)cn4c3c2OCC4)CC1 [Compound 93, (S)-6-(((1-(6-aminopyridin-3-yl)piperidin-3-yl)((2-methoxypyridin-4-yl)methyl)amino)methyl)-10-(4-ethylpiperazin-1-yl)-9-fluoro-2,3-dihydro-7H-[1,4]oxazino[2,3,4-ij]quinolin-7-one] | 411.3
COc1cc(CN(Cc2cn3c4c(c(N5CCN(C)CC5)c(F)cc4c2=O)OCC3)[C@H]2CCCN(c3ccc(N)nc3)C2)ccn1 [Compound 94, (S)-6-(((1-(6-aminopyridin-3-yl)piperidin-3-yl)((2-methoxypyridin-4-yl)methyl)amino)methyl)-9-fluoro-10-(4-methylpiperazin-1-yl)-2,3-dihydro-7H-[1,4]oxazino[2,3,4-ij]quinolin-7-one] | 248.8
Cc1cncc(CN(Cc2cn3c4c(c(N5CCN(C)CC5)c(F)cc4c2=O)OCC3)[C@@H]2CCCN(c3cnccn3)C2)c1 [Compound 95, (R)-9-fluoro-10-(4-methylpiperazin-1-yl)-6-((((5-methylpyridin-3-yl)methyl)(1-(pyrazin-2-yl)piperidin-3-yl)amino)methyl)-2,3-dihydro-7H-[1,4]oxazino[2,3,4-ij]quinolin-7-one] | 1.2
COc1cc(CN(Cc2cn3c4c(c(N5CCN(C)CC5)c(F)cc4c2=O)OCC3C(C)C)[C@H]2CCCN(c3ccc(N)nc3)C2)ccn1 (stereo partly drawn) [Compound 96, 6-((((S)-1-(6-aminopyridin-3-yl)piperidin-3-yl)((2-methoxypyridin-4-yl)methyl)amino)methyl)-9-fluoro-3-isopropyl-10-(4-methylpiperazin-1-yl)-2,3-dihydro-7H-[1,4]oxazino[2,3,4-ij]quinolin-7-one] | 451.1
Cc1cc(CN(Cc2cn3c4c(c(F)c(F)cc4c2=O)SCC3)[C@H]2CCCN(c3cnccn3)C2)ccn1 [Compound 97, (S)-9,10-difluoro-6-((((2-methylpyridin-4-yl)methyl)(1-(pyrazin-2-yl)piperidin-3-yl)amino)methyl)-2,3-dihydro-7H-[1,4]thiazino[2,3,4-ij]quinolin-7-one] | 1.0
